Data from patent US7612064B2, “Sulfopyrroles” (Takeda Pharmaceutical Company Limited, priority 2003, dated 2009).

How the values were obtained:
HeLa = experiment: MTS proliferation assay; type: cell-based, human; conditions: 72 h
Procedure, shortened: (§1)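 Four-point treatment (0.3–10 μM final) ran 72 h in complete medium, with the compound-containing addition holding no more than 5% DMSO. Metabolic activity was then developed with MTS reagent over 3 h and quantified by absorbance (492 nm).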

Jurkat = experiment: MTS proliferation assay; type: cell-based, human; conditions: 72 h
Procedure, shortened: as §1

MRC5 = experiment: MTS proliferation assay; type: cell-based; conditions: MRC5, 72 h
Procedure, shortened: as §1

[1] = Hoechst 33342 nuclear staining; type: cell-based; conditions: for Hoechst 33342 nuclear staining score, H460: H460 cells; for Hoechst 33342 nuclear staining score, HeLa: HeLa cells; for Hoechst 33342 nuclear staining score, Jily: Jily cells; for Hoechst 33342 nuclear staining score, Jurkat: Jurkat cells; for Hoechst 33342 nuclear staining score, MRC5: MRC5 cells;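 as to all read-outs here: apoptotic nuclei scored 0 none 1 weak under 50% of cells 2 strong over 50% of cells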
Procedure, shortened: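 After a further 30 min incubation, plates were inspected on a standard inverted fluorescence microscope. The fraction of apoptotic nuclei and other apoptosis-specific morphology were scored as 0 for no activity, 1 for weak activity in less than 50% of the cells, and 2 for strong activity in more than 50% of the cells.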

[2] = conc 0.1 (final concentrations in μM), 24 h or 48 h incubation
[3] = conc 0.3 (final concentrations in μM), 24 h or 48 h incubation
[4] = conc 1 (final concentrations in μM), 24 h or 48 h incubation
[5] = conc 3 (final concentrations in μM), 24 h or 48 h incubation
[6] = conc 10 (final concentrations in μM), 24 h or 48 h incubation

COc1cc(-c2cc(CNc3ccc4[nH]nnc4c3)cn2S(=O)(=O)c2ccc(C)cc2)cc(OC)c1OC [Example 69]
IC50 (HeLa): > 1 µM
IC50 (Jurkat): < 1 µM
IC50 (MRC5): > 1 µM
Hoechst 33342 nuclear staining score, H460 ([1]; conc 0.1): 0
Hoechst 33342 nuclear staining score, H460 ([1]; conc 0.3): 0
Hoechst 33342 nuclear staining score, H460 ([1]; conc 1): 0
Hoechst 33342 nuclear staining score, H460 ([1]; conc 3): 2 (strong activity comprising more than 50% of the cells)
Hoechst 33342 nuclear staining score, HeLa ([1]; conc 0.1): 0
Hoechst 33342 nuclear staining score, HeLa ([1]; conc 0.3): 0
Hoechst 33342 nuclear staining score, HeLa ([1]; conc 1): 0
Hoechst 33342 nuclear staining score, HeLa ([1]; conc 3): 2 (strong activity comprising more than 50% of the cells)
Hoechst 33342 nuclear staining score, Jily ([1]; conc 0.1): 0
Hoechst 33342 nuclear staining score, Jily ([1]; conc 0.3): 0
Hoechst 33342 nuclear staining score, Jily ([1]; conc 1): 1 (weak activity comprising less than 50% of the cells)
Hoechst 33342 nuclear staining score, Jily ([1]; conc 3): 2 (strong activity comprising more than 50% of the cells)
Hoechst 33342 nuclear staining score, Jurkat ([1]; conc 0.1): 0
Hoechst 33342 nuclear staining score, Jurkat ([1]; conc 0.3): 0
Hoechst 33342 nuclear staining score, Jurkat ([1]; conc 1): 2 (strong activity comprising more than 50% of the cells)
Hoechst 33342 nuclear staining score, Jurkat ([1]; conc 3): 2 (strong activity comprising more than 50% of the cells)
Hoechst 33342 nuclear staining score, MRC5 ([1]; conc 0.1): 0
Hoechst 33342 nuclear staining score, MRC5 ([1]; conc 0.3): 0
Hoechst 33342 nuclear staining score, MRC5 ([1]; conc 1): 0
Hoechst 33342 nuclear staining score, MRC5 ([1]; conc 3): 2 (strong activity comprising more than 50% of the cells)
Hoechst 33342 nuclear staining score, PBLs ([1]; conc 0.1): 0
Hoechst 33342 nuclear staining score, PBLs ([1]; conc 0.3): 0
Hoechst 33342 nuclear staining score, PBLs ([1]; conc 1): 0
Hoechst 33342 nuclear staining score, PBLs ([1]; conc 3): 0

Cc1ccc(S(=O)(=O)n2cc(-c3cccnc3)cc2-c2ccc3c(c2)OCO3)cc1 [Example 49]
IC50 (HeLa): > 1 µM
IC50 (Jurkat): > 1 µM
IC50 (MRC5): > 1 µM
Hoechst 33342 nuclear staining score, HeLa [1, 2]: 0
Hoechst 33342 nuclear staining score, HeLa [1, 3]: 0
Hoechst 33342 nuclear staining score, HeLa [1, 4]: 0
Hoechst 33342 nuclear staining score, HeLa [1, 5]: 0
Hoechst 33342 nuclear staining score, Jurkat [1, 2]: 0
Hoechst 33342 nuclear staining score, Jurkat [1, 3]: 0
Hoechst 33342 nuclear staining score, Jurkat [1, 4]: 0
Hoechst 33342 nuclear staining score, Jurkat [1, 5]: 0

CCN1CCCC1CNCc1cc(-c2ccc3c(c2)OCO3)n(S(=O)(=O)c2ccc(C)cc2)c1 (stereo not shown) [Example 21]
IC50 (HeLa): > 1 µM
IC50 (Jurkat): > 1 µM
IC50 (MRC5): > 1 µM
Hoechst 33342 nuclear staining score, HeLa [1, 2]: 0
Hoechst 33342 nuclear staining score, HeLa [1, 3]: 0
Hoechst 33342 nuclear staining score, HeLa [1, 4]: 0
Hoechst 33342 nuclear staining score, HeLa [1, 5]: 0
Hoechst 33342 nuclear staining score, Jurkat [1, 2]: 0
Hoechst 33342 nuclear staining score, Jurkat [1, 3]: 0
Hoechst 33342 nuclear staining score, Jurkat [1, 4]: 0
Hoechst 33342 nuclear staining score, Jurkat [1, 5]: 0

CCN1CCN(c2ccc(NCc3cc(-c4ccc5c(c4)OCO5)n(S(=O)(=O)c4ccc(C)cc4)c3)cc2)CC1 [Example 37]
IC50 (HeLa): > 1 µM
IC50 (Jurkat): > 1 µM
IC50 (MRC5): > 1 µM
Hoechst 33342 nuclear staining score, HeLa [1, 3]: 0
Hoechst 33342 nuclear staining score, HeLa [1, 4]: 0
Hoechst 33342 nuclear staining score, HeLa [1, 5]: 0
Hoechst 33342 nuclear staining score, HeLa [1, 6]: 0
Hoechst 33342 nuclear staining score, Jurkat [1, 3]: 0
Hoechst 33342 nuclear staining score, Jurkat [1, 4]: 0
Hoechst 33342 nuclear staining score, Jurkat [1, 5]: 0
Hoechst 33342 nuclear staining score, Jurkat [1, 6]: 0

Cc1ccc(S(=O)(=O)n2cc(CNCCCN3CCN(C)CC3)cc2-c2ccc3c(c2)OCO3)cc1 [Example 12]
IC50 (HeLa): > 1 µM
IC50 (Jurkat): > 1 µM
IC50 (MRC5): > 1 µM
Hoechst 33342 nuclear staining score, HeLa [1, 2]: 0
Hoechst 33342 nuclear staining score, HeLa [1, 3]: 0
Hoechst 33342 nuclear staining score, HeLa [1, 4]: 0
Hoechst 33342 nuclear staining score, HeLa [1, 5]: 0
Hoechst 33342 nuclear staining score, Jurkat [1, 2]: 0
Hoechst 33342 nuclear staining score, Jurkat [1, 3]: 0
Hoechst 33342 nuclear staining score, Jurkat [1, 4]: 0
Hoechst 33342 nuclear staining score, Jurkat [1, 5]: 0

CCN(CC)CCCNCc1cc(-c2ccc3c(c2)OCO3)n(S(=O)(=O)c2ccc(C)cc2)c1 [Example 34]
IC50 (HeLa): > 1 µM
IC50 (Jurkat): > 1 µM
IC50 (MRC5): > 1 µM
Hoechst 33342 nuclear staining score, HeLa [1, 2]: 0
Hoechst 33342 nuclear staining score, HeLa [1, 3]: 0
Hoechst 33342 nuclear staining score, HeLa [1, 4]: 0
Hoechst 33342 nuclear staining score, HeLa [1, 5]: 0
Hoechst 33342 nuclear staining score, Jurkat [1, 2]: 0
Hoechst 33342 nuclear staining score, Jurkat [1, 3]: 0
Hoechst 33342 nuclear staining score, Jurkat [1, 4]: 0
Hoechst 33342 nuclear staining score, Jurkat [1, 5]: 0

COc1cc(-c2cc(CNc3ccc(S(N)(=O)=O)cc3)cn2S(=O)(=O)c2ccc(C)cc2)cc(OC)c1OC [Example 70]
IC50 (HeLa): > 1 µM
IC50 (Jurkat): < 1 µM
IC50 (MRC5): > 1 µM
Hoechst 33342 nuclear staining score, H460 ([1]; conc 0.1): 0
Hoechst 33342 nuclear staining score, H460 ([1]; conc 0.3): 0
Hoechst 33342 nuclear staining score, H460 ([1]; conc 1): 0
Hoechst 33342 nuclear staining score, H460 ([1]; conc 3): 2 (strong activity comprising more than 50% of the cells)
Hoechst 33342 nuclear staining score, HeLa ([1]; conc 0.1): 0
Hoechst 33342 nuclear staining score, HeLa ([1]; conc 0.3): 0
Hoechst 33342 nuclear staining score, HeLa ([1]; conc 1): 0
Hoechst 33342 nuclear staining score, HeLa ([1]; conc 3): 0
Hoechst 33342 nuclear staining score, Jily ([1]; conc 0.1): 0
Hoechst 33342 nuclear staining score, Jily ([1]; conc 0.3): 0
Hoechst 33342 nuclear staining score, Jily ([1]; conc 1): 0
Hoechst 33342 nuclear staining score, Jily ([1]; conc 3): 2 (strong activity comprising more than 50% of the cells)
Hoechst 33342 nuclear staining score, Jurkat ([1]; conc 0.1): 0
Hoechst 33342 nuclear staining score, Jurkat ([1]; conc 0.3): 0
Hoechst 33342 nuclear staining score, Jurkat ([1]; conc 1): 2 (strong activity comprising more than 50% of the cells)
Hoechst 33342 nuclear staining score, Jurkat ([1]; conc 3): 2 (strong activity comprising more than 50% of the cells)
Hoechst 33342 nuclear staining score, MRC5 ([1]; conc 0.1): 0
Hoechst 33342 nuclear staining score, MRC5 ([1]; conc 0.3): 0
Hoechst 33342 nuclear staining score, MRC5 ([1]; conc 1): 0
Hoechst 33342 nuclear staining score, MRC5 ([1]; conc 3): 2 (strong activity comprising more than 50% of the cells)
Hoechst 33342 nuclear staining score, PBLs ([1]; conc 0.1): 0
Hoechst 33342 nuclear staining score, PBLs ([1]; conc 0.3): 0
Hoechst 33342 nuclear staining score, PBLs ([1]; conc 1): 0
Hoechst 33342 nuclear staining score, PBLs ([1]; conc 3): 0
